This passage reports IC50 and Activity results from ChEMBL document CHEMBL4330136, “Shape-based virtual screen for the discovery of novel CDK8 inhibitor chemotypes” (Bioorg Med Chem Lett, 2019).

The test system of test [1] is HCT-116. Description: Growth inhibition of human HCT116 cells after 72 hrs by Celltiter-glo assay. The class given is functional, cell-based. The settings on record: HCT-116, 72 h. For orientation: Cellular ATP, detected with luciferase, serves as a proxy for viable cell number.
The subject of test [2] is SW-620. Description: Growth inhibition of human SW620 cells after 72 hrs by Celltiter-glo assay. The settings on record: SW-620, 72 h. It counts as functional, cell-based.
Test [3] has as its system HCT-116. The experiment in a line: Cell cycle arrest in human HCT116 cells assessed as accumulation at G1-phase at 5 uM after 12 to 16 hrs by propidium iodide staining based flow cytometry (reference value: 30.99%). The class given is functional. For orientation: In flow cytometry, cells or beads pass a laser one at a time.
Test [4] has as its system HCT-116. The experiment in a line: Cell cycle arrest in human HCT116 cells assessed as accumulation at G1-phase at 15 uM after 12 to 16 hrs by propidium iodide staining based flow cytometry (reference value: 30.99%). It counts as functional.
Test [5] deals with HCT-116. The experiment in a line: Cell cycle arrest in human HCT116 cells assessed as accumulation at G1-phase at 30 uM after 12 to 16 hrs by propidium iodide staining based flow cytometry (reference value: 30.99%). The class given is functional.
In test [6] the test system is HCT-116. The experiment in a line: Cell cycle arrest in human HCT116 cells assessed as accumulation at S-phase at 5 uM after 12 to 16 hrs by propidium iodide staining based flow cytometry (reference value: 55.74%). It counts as functional.
Test [7] deals with HCT-116. Description: Cell cycle arrest in human HCT116 cells assessed as accumulation at S-phase at 15 uM after 12 to 16 hrs by propidium iodide staining based flow cytometry (reference value: 55.74%). The class given is functional.
Test [8] deals with HCT-116. The experiment in a line: Cell cycle arrest in human HCT116 cells assessed as accumulation at S-phase at 30 uM after 12 to 16 hrs by propidium iodide staining based flow cytometry (reference value: 55.74%). The class given is functional.
Test [9] relates to HCT-116. The experiment in a line: Cell cycle arrest in human HCT116 cells assessed as accumulation at G2-phase at 5 uM after 12 to 16 hrs by propidium iodide staining based flow cytometry (reference value: 13.28%). It counts as functional.
Test [10] concerns HCT-116. Description: Cell cycle arrest in human HCT116 cells assessed as accumulation at G2-phase at 15 uM after 12 to 16 hrs by propidium iodide staining based flow cytometry (reference value: 13.28%). The class given is functional.
Test [11] concerns HCT-116. Description: Cell cycle arrest in human HCT116 cells assessed as accumulation at G2-phase at 30 uM after 12 to 16 hrs by propidium iodide staining based flow cytometry (reference value: 13.28%). It counts as functional.
The test system of test [12] is SW-620. Description: Cell cycle arrest in human SW620 cells assessed as accumulation at G1-phase at 5 uM after 12 to 16 hrs by propidium iodide staining based flow cytometry (reference value: 24.69%). It counts as functional.
Test [13] has as its system SW-620. Description: Cell cycle arrest in human SW620 cells assessed as accumulation at G1-phase at 15 uM after 12 to 16 hrs by propidium iodide staining based flow cytometry (reference value: 24.69%). The class given is functional.
Test [14] deals with SW-620. Description: Cell cycle arrest in human SW620 cells assessed as accumulation at G1-phase at 30 uM after 12 to 16 hrs by propidium iodide staining based flow cytometry (reference value: 24.69%). The class given is functional.
In test [15] the test system is SW-620. The experiment in a line: Cell cycle arrest in human SW620 cells assessed as accumulation at S-phase at 5 uM after 12 to 16 hrs by propidium iodide staining based flow cytometry (reference value: 53.91%). The class given is functional.
For test [16], the system named is SW-620. The experiment in a line: Cell cycle arrest in human SW620 cells assessed as accumulation at S-phase at 15 uM after 12 to 16 hrs by propidium iodide staining based flow cytometry (reference value: 53.91%). The class given is functional.
Test [17] concerns SW-620. The experiment in a line: Cell cycle arrest in human SW620 cells assessed as accumulation at S-phase at 30 uM after 12 to 16 hrs by propidium iodide staining based flow cytometry (reference value: 53.91%). The class given is functional.
Test [18] deals with SW-620. The experiment in a line: Cell cycle arrest in human SW620 cells assessed as accumulation at G2-phase at 5 uM after 12 to 16 hrs by propidium iodide staining based flow cytometry (reference value: 19.02%). The class given is functional.
Test [19] deals with SW-620. The experiment in a line: Cell cycle arrest in human SW620 cells assessed as accumulation at G2-phase at 15 uM after 12 to 16 hrs by propidium iodide staining based flow cytometry (reference value: 19.02%). The class given is functional.
The test system of test [20] is SW-620. The experiment in a line: Cell cycle arrest in human SW620 cells assessed as accumulation at G2-phase at 30 uM after 12 to 16 hrs by propidium iodide staining based flow cytometry (reference value: 19.02%). It counts as functional.
A further test addresses CDK8/Cyclin C (Homo sapiens, UniProt P49336). The experiment in a line: Inhibition of kinase tracer 236 binding to recombinant full length His-tagged human CDK8/CycC expressed in baculovirus expression system preincubated for 20 mins followed by tracer addition and measured after 2 hrs by FRET-based LanthaScreen Eu kinase binding assay.
Test [21] has as its system HCT-116. Description: Induction of G1-phase to S-phase transition arrest in human HCT116 cells after 12 to 16 hrs by propidium iodide staining based flow cytometry. It counts as functional, cell-based.

Chain of CDK8/Cyclin C (P49336 whole entry): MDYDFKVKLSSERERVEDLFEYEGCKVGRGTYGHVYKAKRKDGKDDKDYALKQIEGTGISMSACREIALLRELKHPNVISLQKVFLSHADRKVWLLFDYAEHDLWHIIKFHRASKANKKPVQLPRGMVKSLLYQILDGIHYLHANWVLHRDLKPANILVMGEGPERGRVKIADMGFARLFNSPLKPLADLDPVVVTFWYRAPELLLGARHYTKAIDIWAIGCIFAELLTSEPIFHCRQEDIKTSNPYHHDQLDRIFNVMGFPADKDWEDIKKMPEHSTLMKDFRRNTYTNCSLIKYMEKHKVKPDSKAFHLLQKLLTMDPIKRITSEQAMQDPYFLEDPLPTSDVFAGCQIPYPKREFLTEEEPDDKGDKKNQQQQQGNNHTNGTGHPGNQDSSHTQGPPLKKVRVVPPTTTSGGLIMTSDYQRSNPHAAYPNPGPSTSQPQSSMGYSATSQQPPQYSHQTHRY
Chain of CDK8/Cyclin C (P24863 whole entry, further chain): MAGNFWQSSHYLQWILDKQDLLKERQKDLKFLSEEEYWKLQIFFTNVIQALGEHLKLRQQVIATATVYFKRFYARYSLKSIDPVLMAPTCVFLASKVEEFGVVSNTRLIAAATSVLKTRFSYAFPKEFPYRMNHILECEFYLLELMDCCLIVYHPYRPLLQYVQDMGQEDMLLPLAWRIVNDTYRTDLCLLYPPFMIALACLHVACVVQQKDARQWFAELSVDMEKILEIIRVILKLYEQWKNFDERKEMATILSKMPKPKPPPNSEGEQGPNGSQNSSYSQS

As to `Cc1n[nH]c2ncc(C(=O)N3CCC[C@H]3c3ccc(Cl)cc3)cc12`, the IC50 in the test with HCT-116 [1] came out at 70.2 µM; in the test with SW-620 [2], 52.4 µM. In addition, the Activity with HCT-116 [3] was 48.91%; in the test with HCT-116 [4], 47.08%; with HCT-116 [5], 50.47%; in the test on HCT-116 [6] it was 29.34%; with HCT-116 [7] it was 27.98%; with HCT-116 [8], 22.36%. The Activity with HCT-116 [9] turned out to be 21.76%; in the test with HCT-116 [10], 24.8%; in the test with HCT-116 [11] it was 27.16%; in the test on SW-620 [12] it was 27.52%; in the test with SW-620 [13], 30.31%; with SW-620 [14] it was 34.8%. The Activity in the test with SW-620 [15] is 56.44%; with SW-620 [16], 54.86%; in the test with SW-620 [17], 50.77%; in the test with SW-620 [18], 13.83%; with SW-620 [19] it was 12.35%; with SW-620 [20] it was 11.66%.
Turning to `COc1ccc(CNc2ncnc3scc(-c4ccccc4)c23)cc1`, the half-inhibitory concentration (IC50) on CDK8/Cyclin C amounted to 2900 nM.
As to `COc1ccc(C(=O)c2cnc3ccc(F)cc3c2N2CCCCC2)cc1`, the IC50 was 1300 nM on CDK8/Cyclin C, 4.5 µM in the test on HCT-116 [1] and 25 µM in the test with SW-620 [2]. In addition, the Activity worked out at 35.24% with HCT-116 [3]; 47.09% with HCT-116 [4]; 62.66% with HCT-116 [5]; 51.63% in the test with HCT-116 [6]; 38.98% with HCT-116 [7]; 23.48% in the test on HCT-116 [8]. For the same compound, the Activity with HCT-116 [9] was determined as 13.13%; in the test on HCT-116 [10] it was 13.92%; with HCT-116 [11] it was 13.86%; with SW-620 [12], 25.08%; with SW-620 [13], 28.05%; with SW-620 [14], 41.68%. Moreover, the Activity in the test on SW-620 [15] was found to be 54.27%; with SW-620 [16], 51.89%; in the test with SW-620 [17] it was 38.54%; in the test with SW-620 [18], 18.15%; in the test with SW-620 [19] it was 17.69%; in the test on SW-620 [20], 16.94%. For the same compound, in the test with HCT-116 [21], the Activity result is “Dose-dependent effect”.

Usually IC50 stands for the midpoint of a concentration-inhibition curve.
